Assay results published in patent US20140057842A1, “COMPOSITIONS AND METHODS FOR CELL HOMING AND ADIPOGENESIS” (The Trustees of Columbia University in the City of New York, priority 2010, published 2014).

Columns and labels:
[1] = tested on: adipocyte stem cells (ASCs); test: Adipogenesis of adipocyte stem cells treated with EGFR antagonist (marker expression, glycerol and leptin contents); type: cell-based; conditions: 50 ng/mL in adipogenic medium
Text: Together, the adipogenic differentiation capacity of ASCs was restored to a similar level to without HSC co-culture.

hADSCs [2] = test: Adiponectin content of hADSCs at two and four weeks post-treatment; type: cell-based, human; conditions: ADM plus 2 μM Pyrintegrin
Protocol: At two and four weeks post-treatment, Adiponectin content was measure in hADSCs treated with: control medium; adipogenic differentiation medium (ADM); ADM plus 10 μM of Notch gamma Secretase Inhibitor (Inh1) (ADM+Inh1); ADM plus 10 μM of MAPK Inhibitor (Inh2) (ADM+Inh2), and ADM plus 10 μM of Inh1 and Inh2 (ADM+Inh1, 2).
At two and four weeks post-treatment, Adiponectin content was measured in hADSCs treated with: control medium; adipogenic differentiation medium (ADM); and ADM plus 2 μM of Pyrintegrin (ADM+Drug).

BMP pathway = test: Western blot analysis of hADSCs 1-hour post-treatment, phosphorylation of Smad1/5/8; type: cell-based, human; conditions: 2 μM with ADM or alone
Protocol: (§1) Western blot analysis was performed 1-hour post-treatment in hADSCs treated with: control medium (Control); adipogenic differentiation medium (ADM); ADM plus 2 μM of Pyrintegrin (ADM+Drug); and Pyrintegrin alone (Drug).

hADSCs [3] = test: Leptin content of hADSCs at two and four weeks post-treatment; type: cell-based, human; conditions: ADM plus 2 μM Pyrintegrin
Protocol: At two and four weeks post-treatment, Leptin content was measured in hADSCs treated with: control medium; adipogenic differentiation medium (ADM); ADM plus 10 μM of Notch gamma Secretase Inhibitor (Inh1) (ADM+Inh1); ADM plus 10 μM of MAPK Inhibitor (Inh2) (ADM+Inh2); and ADM plus 10 μM of Inh1 and Inh2 (ADM+Inh1, 2).
At two and four weeks post-treatment, Leptin content was measured in hADSCs treated with: control medium; adipogenic differentiation medium (ADM); and ADM plus 2 μM of Pyrintegrin (ADM+Drug).

TGFβ/Activin pathway = test: Western blot analysis of hADSCs 1-hour post-treatment, TGFβ/Activin pathway; type: cell-based, human; conditions: 2 μM with ADM or alone
Protocol: as §1

hADSCs [4] = test: Lipid staining / brightfield images of hADSCs four weeks post-treatment; type: cell-based, human; conditions: ADM plus Pyrintegrin, compared with ADM alone
Protocol: Brightfield images were produced four weeks post-treatment of hADSCs with: (A) ADM; (B) ADM+Inh1; (C) ADM+Inh2; and (D) ADM+Inh1, 2 (see e.g., FIG. 6 A-D).
Lipid staining was performed four weeks post-treatment of hADSCs with: (A) ADM; and (B) ADM plus Pyrintegrin (ADM+Pyrintegrin).

hADSCs [5] = test: PPARγ expression of hADSCs followed for 28 days; type: cell-based, human; conditions: ADM plus 2 μM Pyrintegrin, compared with ADM alone
Protocol: Change in PPARγ expression of hADSCs were followed for 28 days. hADSCs were treated with: control medium; adipogenic differentiation medium (ADM); ADM plus 10 μM of Notch gamma Secretase Inhibitor (Inh1) (ADM+Inh1); ADM plus 10 μM of MAPK Inhibitor (Inh2) (ADM+Inh2); and ADM plus 10 μM of Inh1 and Inh2 (ADM+Inh1, 2).
PPARγ expression was measured for 28 days in hADSCs treated with: control medium; adipogenic differentiation medium (ADM); and ADM plus 2 μM of Pyrintegrin (ADM+Pyrintegrin).

hADSCs [6] = test: PPARγ and C/EBPα gene expression of hADSCs four days post-treatment with Pyrintegrin without ADM; type: cell-based, human; conditions: control medium plus 2 μM or 10 μM Pyrintegrin
Protocol: PPARγ and C/EBPα gene expression was measured at four days post-treatment in hADSCs treated with: control medium (Control); control medium plus 2 μM of Pyrintegrin (Control+Drug 2 μM); control medium plus 10 μM of Pyrintegrin (Control+Drug 10 μM) and adipogenic medium (ADM).

hADSCs [7] = test: Glycerol content of hADSCs at two and four weeks post-treatment; type: cell-based, human; conditions: ADM plus 2 μM Pyrintegrin
Protocol: At two and four weeks post-treatment, Glycerol content was measured in hADSCs treated with: control medium; adipogenic differentiation medium (ADM); and ADM plus 2 μM of Pyrintegrin (ADM+Drug).

hADSCs [8] = test: C/EBPα expression of hADSCs followed for 28 days; type: cell-based, human; conditions: ADM plus 2 μM Pyrintegrin, compared with ADM alone
Protocol: Change in C/EBPα expression of hADSCs were followed for 28 days. hADSCs were treated with: control medium; adipogenic differentiation medium (ADM); ADM plus 10 μM of Notch gamma Secretase Inhibitor (Inh1) (ADM+Inh1); ADM plus 10 μM of MAPK Inhibitor (Inh2) (ADM+Inh2); and ADM plus 10 μM of Inh1 and Inh2 (ADM+Inh1, 2).
C/EBPα expression was measured for 28 days in hADSCs treated with: control medium; adipogenic differentiation medium (ADM); and ADM plus 2 μM of Pyrintegrin (ADM+Pyrintegrin).

Compound	adipogenesis of ASCs on addition of EGF to the adipogenic medium [1]	secretion of Adiponectin cytokine by hADSCs (hADSCs [2])	phosphorylation of Smad1/5/8 (BMP pathway) (BMP pathway)	secretion of Leptin cytokine by hADSCs (hADSCs [3])	TGFβ/Activin pathway inhibition (TGFβ/Activin pathway)	lipid accumulation in hADSCs (hADSCs [4])	PPARγ expression in hADSCs (hADSCs [5])	adipogenic differentiation of hADSCs (PPARγ and C/EBPα gene expression) (hADSCs [6])	secretion of Glycerol by hADSCs (hADSCs [7])	C/EBPα expression in hADSCs (hADSCs [8])
EGF: EGF added at 50 ng/mL to the adipogenic medium (NSDSECPLSHDGYCLHDGVCMYIEALDKYACNCVVGYIGERCQYRDLKWWELR; UniProt P01133 971-1023, looked up)	further inhibited adipogenesis									
O=S(=O)(NCC1CC1)c1ccc(Nc2nccc(N3CCCc4cc(O)ccc43)n2)cc1 [Pyrintegrin, N-(Cyclopropylmethyl)-4-(4-(6-hydroxy-3,4-dihydroquinolin-1-(2H)-yl)pyrimidin-2-ylamino)benzenesulfonamide]		enhanced the secretion of Adiponectin cytokine	prevents the phosphorylation of Smad1/5/8	enhanced the secretion of Leptin cytokine	does not target the TGFβ/Activin pathway	more potent in inducing lipid accumulation	more potent in inducing PPARγ expression	can induce hADSCs towards an adipogenic differentiation pathway	enhanced the secretion of Glycerol	more potent in inducing C/EBPα expression
